# From US20230391729A1, “SUCCINATE SALTS OF N-(3-(4-(3-(DIISOBUTYLAMINO)PROPYL)PIPERAZIN-1-YL)PROPYL)-1H-BENZO[D]IMIDAZOL-2-AMINE, PREPARATION THEREOF AND USE OF THE SAME” (ALZPROTECT, priority 2020, published 2023)
# Experiments:
# Format in all cases: cell-based, rat
# [1] = test system: cortical neurons cultured with microglia; experiment: Neuron survival and neurite network (MAP-2) in cortical neurons after Aβ1-42 injury; details: Aβ1-42 injury 72 h, co-administered; 10 nM to 100 nM
# Protocol: (§1) Rat cortical neurons cultured with microglia were cultured as described by Callizot et al. in J Neurosci Res. 2013, 91: 706-716 with modifications to include microglial cells. Pregnant female rats (Rats Wistar; Janvier Labs France) of 15 days of gestation were killed, after a deep anesthesia with CO2, by cervical dislocation. Then, fetuses were collected and immediately placed in ice-cold L15 Leibovitz medium with a 2% penicillin (10,000 U/ml) and streptomycin (10 mg/ml) solution (PS) and 1% bovine serum albumin (BSA). Cortexes were treated for 20 min at 37° C. with a trypsin-EDTA solution at a final concentration of 0.05% trypsin and 0.02% EDTA. The dissociation was stopped by addition of Dulbecco's modified Eagle's medium (DMEM) with 4.5 g/liter of glucose, containing DNAse I grade II (final concentration 0.5 mg/ml) and 10% fetal calf serum (FCS). Cells were mechanically dissociated by three forced passages through the tip of a 10-mL pipette. […] Viable cells were counted in a Neubauer cytometer, using the trypan blue exclusion test. […]
# (§2) Cortical neurons were intoxicated with A3 solutions (see below) after 11 days of culture. […] This solution was gently agitated for 3 days at 37° C. in the dark and immediately used after being properly diluted in control medium to the concentrations used ([…] of Aβ1-42 preparation containing […] of Aβ oligomers (AβO) measured by WB). […]
# [2] = test system: tau, phosphorylated on the sites Thr212 and Ser214 (AT100); experiment: Tau phosphorylation (AT100) in cortical neurons after Aβ1-42 injury; details: Aβ1-42 injury 72 h; doses above 1 nM
# Protocol: as §1, §2
# microglial cells = experiment: Microglia activation (OX-41) after Aβ1-42 injury; details: Aβ1-42 injury 72 h; at the investigated doses
# Protocol: as §1, §2
substance,measurement,setting,value
N-(3-(4-(3-(diisobutylamino)propyl)piperazin-1-yl)propyl)-1H-benzo[d]imidazol-2-amine sesqui-succinate salt [sesqui-succinate salt Form 1],neurite network (MAP-2 staining),[1],significantly longer
same,neuron survival: total number of neurons (MAP-2 staining),[1],neuroprotective
same,hyperphosphorylation of Tau (AT100 in MAP-2 neurons),[2],significantly reduced
same,activation of microglial cells (OX41 area),microglial cells,able to decrease the activation of microglial cells
